# Patent publication EP0082731A1, “The use of peptides as medicaments” (NOVO INDUSTRI A/S, priority 1981, dated 1983)
# Like-named read-outs stand apart in the source and are kept apart here.
# Tests used:
# [1] = tested on: isolated perfused rat pancreas; assay: IRI (insulin) release from the isolated perfused rat pancreas
# Text: Such a use should be especially safe as no hypoglycaemia will occur during treatment because of the lack of IRI releasing effect in the presence of hypoglycaemia and normoglycaemia.
# Furthermore, it is stated therein that compounds of formula I show no or minor, negligible metabolic effects. […] Based thereupon it is surprising that compounds of formula I have an insulin releasing effect on animals primed with glucose corresponding to hyperglycaemia.
# [2] = tested on: isolated perfused rat pancreas; conditions: buffer glucose concentration 1.0 mg/ml corresponding to normoglycaemia or below; statement of Danish patent application No. 2885/81; cited from earlier work
substance,measurement,setting,value
"glucagon-(1-21)-heneicosapeptide (HSQGTFTSDYSKYLDSRRAQD; Glucagon; UniProt P01275 53-73, looked up, fragment) [glucagon(1-21)]",insulin releasing effect,[1]; at hyperglycaemia,have this effect
same,insulin release,"[1]; buffer glucose concentration 0.6 mg/ml corresponding to hypoglycaemia, infused to the same concentration as glucagon",no such effect
same,"IRI (immunoreactive insulin) releasing effect, as share of glucagon's",[1]; buffer glucose concentration 1.5 mg/ml corresponding to mild hyperglycaemia,about 60%
same,"IRI (immunoreactive insulin) releasing effect, as share of glucagon's",[1]; buffer glucose concentration 2.0 mg/ml corresponding to hyperglycaemia,about 85%
same,insulin release,[2],does not release insulin
